Results published in paper PMC9291755, “The Effect of Food on the Pharmacokinetics of the Potassium‐Competitive Acid Blocker Vonoprazan” (Clinical Pharmacology in Drug Development, 2021).
“Also recorded” adds a separate entry of the source. Where two headings read alike, the source gives them in different places.

What was measured:
[1] = set-up: method as in PMID 25707624, PMID 28198590, PMID 26193978, PMID 31990424; conditions: 212 healthy volunteers, daily doses up to 40 mg for up to 7 days; cited from earlier work
[2] = tested on: gastric acid secretion; set-up: method as in PMID 26111126; conditions: single doses ≥20 mg, clinical studies; cited from earlier work
[3] = Phase 1 randomized open-label crossover food-effect pharmacokinetic study, plasma vonoprazan by LC-MS/MS; format: in vivo, healthy Caucasian male and female subjects (human); conditions: for AUC / Cmax / tmax: po, 20 mg; for tmax: read-out: tmax, median (min, max)
Experimental: This was a randomized, open‐label, 2×2 crossover, phase 1 study stratified by gender in healthy Caucasian male and female subjects. The study was conducted at a single site in Northern Ireland (MDS Pharma Services, Belfast, Northern Ireland). The study was approved by an independent ethics committee (Edinburgh Independent Ethics Committee, Edinburgh, Scotland). Written informed consent was obtained from all subjects before study initiation.
The enrolled study population included 12 men and 14 women aged 18 to 45 years, of Caucasian ethnicity, considered eligible on the basis of study inclusion and exclusion criteria. To be eligible, subjects must have been in good health and have had clinical laboratory evaluations (including clinical chemistry, hematology, and urinalysis) within the reference range for the testing laboratory, or only minor deviations that were deemed by the investigator to be clinically nonsignificant. Additional inclusion criteria included a body mass index between 18 and 30 kg/m^2 and a willingness to provide written informed consent before any screening procedures; abstention from caffeine, alcohol, and strenuous exercise from 72 hours before dosing until the follow‐up call/visit; and use of adequate contraception from screening, throughout the study, and for 30 days following the last dose of study medication (applicable to female subjects of childbearing potential who were sexually active) or for 12 weeks after the follow‐up visit (applicable to male subjects with female partners, both of whom were required to use contraception). In addition to caffeine and alcohol, subjects who had received the following were excluded from participation: nicotine products 6 weeks before the first dose of study medication; antibiotics within 28 days prior to initial screening; prescription medication or St. John's wort, ginseng, kava, ginkgo biloba, melatonin, herbal or homeopathic preparations, or other nutriceuticals within 28 days before the first dose; over‐the‐counter medication including salicylates (except when approved on a case‐by‐case basis) or vitamin supplements within 14 days before the first dose; and grapefruit or grapefruit products, Seville oranges (sour) or products, or poppy seeds within 7 days before the first dose.
Subjects were randomized to either the fed/fasted state or fasted/fed state sequence, with randomization stratified by sex. Eligible subjects received a single 20‐mg dose of vonoprazan (given as two 10‐mg tablets) either following an overnight fast or 30 minutes after a breakfast (≈900 calories, with 62% of the calories from fat, 23% from carbohydrate, and 14% from protein).
After a 5‐day washout period, subjects received a second 20‐mg dose of vonoprazan in the alternative fed/fasted state, and the identical process was performed. During dosing in the fasted state, subjects fasted for 10 hours before receiving the study drug. During dosing in the fed state, subjects fasted for 10 hours and then consumed the breakfast, which was started 30 minutes before dosing and eaten in ≤30 minutes. Vonoprazan was taken with 240 mL of water, and subjects refrained from eating for 4 hours after dosing. Water (200 mL) was given to all subjects at 2 and 4 hours after dosing. All administrations of vonoprazan were taken under supervision.
Plasma concentrations of vonoprazan were determined using a liquid chromatography–tandem mass spectrometry assay with a validated concentration range of 0.1 to 100 ng/mL. A total of 864 samples were analyzed in 13 reported batches. The bioanalytical method utilized protein precipitation and extraction of plasma samples with acetonitrile‐formic acid (100:0.2, v/v) before analysis by liquid chromatography–tandem mass spectrometry. […]

[4] = set-up: method as in PMID 17575528, PMID 21132072; conditions: no enteric coating required; cited from earlier work
[5] = Safety/tolerability in the food-effect study (adverse events, vital signs, ECG, laboratory tests); conditions: for Incidence of AEs: single 20-mg dose, 24 subjects
Source text: Safety variables included physical examination findings; vital signs; electrocardiograms; clinical laboratory evaluations including hematology, chemistry, and urinalysis; and treatment‐emergent adverse events (AEs).
The safety analysis set comprised all enrolled subjects who received at least 1 dose of vonoprazan and was used for safety and baseline demographics summaries.

[6] = tested on: cytochrome P450 (CYP) 3A4; set-up: method as in PMID 26369775, PMID 29383028, PMID 27414183; conditions: lesser extent by CYP2B6, CYP2C19, CYP2D6; cited from earlier work
[7] = set-up: method as in PMID 25707624; conditions: 20 mg once daily after ≥10-hour fast, cited from earlier work
[8] = cited from earlier work
[9] = set-up: method as in PMID 25707624; conditions: 20 mg once daily after ≥10-hour fast, cited from earlier work; remark: listed apart in the source
[10] = set-up: method as in PMID 26369775; conditions: single 20 mg, cited from earlier work
[11] = single 20-mg doses, fed and fasted
[12] = 12 healthy Japanese adult men, unchanged vonoprazan

Which results are given for CNCc1cc(-c2ccccc2F)n(S(=O)(=O)c2cccnc2)c1.O=C(O)/C=C/C(=O)O [vonoprazan, 1‐[5‐(2‐fluorophenyl)‐1‐(pyridin‐3‐ylsulfonyl)‐1H‐pyrrol‐3‐yl]‐N‐methylmethanamine monofumarate]?
safety signals [1]: no safety signals; Tolerability [2]: well tolerated; duration of action [2]: 24 h; onset of action [2]: < 4 h; AUC ([3]; both sexes, human, plasma, single 20-mg oral dose, fasted, N = 24, read-out: AUC0‐24, least-squares mean): 0.154 µg·h/mL; AUC ([3]; both sexes, human, plasma, single 20-mg oral dose, fasted, N = 24, read-out: AUC0‐∞, least-squares mean): 0.171 µg·h/mL; Cmax ([3]; both sexes, human, plasma, single 20-mg oral dose, fasted, N = 24, read-out: Cmax, least-squares mean): 0.0173 µg/mL; AUC ([3]; both sexes, human, plasma, single 20-mg oral dose, fasted, n = 24, plasma, read-out: AUC0‐24, mean (SD)): 0.161 µg·h/mL; AUC ([3]; both sexes, human, plasma, single 20-mg oral dose, fasted, n = 24, plasma, read-out: AUC0‐∞, mean (SD)): 0.179 µg·h/mL; Cmax ([3]; both sexes, human, plasma, single 20-mg oral dose, fasted, n = 24, plasma, read-out: Cmax, mean (SD)): 0.0182 µg/mL; tmax ([3]; both sexes, human, plasma, single 20-mg oral dose, fasted, n = 24): 2 h; Cmax ([3]; both sexes, human, plasma, single 20-mg oral dose, fed (high-fat breakfast), n = 24, plasma, read-out: Cmax, mean (SD)): 0.0189 µg/mL; AUC ([3]; both sexes, human, plasma, single 20-mg oral dose, fed, N = 24, read-out: AUC0‐24, least-squares mean): 0.174 µg·h/mL; AUC ([3]; both sexes, human, plasma, single 20-mg oral dose, fed, N = 24, read-out: AUC0‐∞, least-squares mean): 0.196 µg·h/mL; Cmax ([3]; both sexes, human, plasma, single 20-mg oral dose, fed, N = 24, read-out: Cmax, least-squares mean): 0.0182 µg/mL; AUC ([3]; both sexes, human, plasma, single 20-mg oral dose, fed, n = 24, plasma, read-out: AUC0‐24, mean (SD)): 0.181 µg·h/mL; AUC ([3]; both sexes, human, plasma, single 20-mg oral dose, fed, n = 24, plasma, read-out: AUC0‐∞, mean (SD)): 0.206 µg·h/mL; tmax ([3]; both sexes, human, plasma, single 20-mg oral dose, fed, n = 24): 4 h; half-life ([3]; both sexes, human, plasma, single 20-mg oral dose, fed, n = 24, read-out: t1/2 (terminal elimination half-life), mean (SD) (converted)): 6.9 h; Effect of food on exposure ([3]; single 20-mg dose, fed vs fasted, CI within 80% to 125%): not meaningfully affected by food; also recorded: not materially affected by food; AUC0‐24, fed/fasted ratio of geometric (least-squares) means ([3]; single 20-mg oral dose, N = 24): 1.13; AUC0‐∞, fed/fasted ratio of geometric (least-squares) means ([3]; single 20-mg oral dose, N = 24): 1.15; Cmax, fed/fasted ratio of geometric (least-squares) means ([3]; single 20-mg oral dose, N = 24): 1.05; t1/2 (terminal elimination half-life), mean (SD) ([3]; single 20-mg oral dose, fasted, n = 24): 6.9 (1.45) h; acid stability [4]: acid stable; Incidence of AEs ([5]; fasted state): 12.5%; Incidence of AEs ([5]; fed state): 8.3%; Tolerability ([5]; single 20-mg doses given on 2 occasions, healthy subjects): safe and well tolerated; Changes in liver function tests [5, 11]: no obvious treatment‐emergent changes; Changes in vital signs, 12-lead electrocardiograms, laboratory safety tests [5, 11]: no clinically important changes; Serious AEs and deaths during the study [5, 11]: No serious AEs and no deaths; Severity of reported AEs [5, 11]: mild; Number of adverse events ([5]; whole study, four subjects affected): 6; metabolizing enzymes [6]: primarily metabolized by cytochrome P450 (CYP) 3A4; tmax ([7]; day 1, Japanese study): 1.5 h; tmax ([7]; day 7, Japanese study): 1.5 h; influence of CYP2C19 polymorphisms on pharmacokinetics ([8]; Japanese repeated-dose study and earlier phase 1 study): not influenced by CYP2C19 polymorphisms; accumulation in plasma after multiple doses ([8]; doses from 10 to 40 mg, days 1 and 7): little to no accumulation; median time of peak plasma concentrations (tmax) ([8]; oral, once-daily dosing): ≤ 2 h; tmax ([9]; day 1, UK study): 1.5 h; tmax ([9]; day 7, UK study): 1.1 h; AUC0‐48, fed/fasted ratio [10, 12]: 1.08; Cmax, fed/fasted ratio [10, 12]: 1.09; AUC0‐∞ ([10]; fasted state, Japanese men): 0.2253 µg·h/mL; Cmax ([10]; fasted state, Japanese men): 0.0243 µg/mL; median tmax ([10]; fasted state, Japanese men): 1.5 h; t1/2 ([10]; fasted state, Japanese men): 7.7 h; median tmax ([10]; fed state, Japanese men): 3.0 h
